Data as given in patent publication US12673945B2, “3-((8-((1H-pyrazol-4-yl)amino)imidazo[1,2-a]pyridin-3-yl)ethinyl)-n-phenylbenzamide derivative, method for preparing same, and pharmaceutical composition containing same as active ingredient for prevention or treatment of cancer” (DAEGU-GYEONGBUK MEDICAL INNOVATION FOUNDATION, priority 2020, dated 2026).

What was measured:
Type in all cases: cell-based
T315I-KOPM28 cells = test: human CML cell proliferation inhibition; settings: 72 hours, Cell Counting Kit-8
How it was run: (§1)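 Growth inhibition over 72 h at 37 °C in Bcr-Abl (TCCS, KOPM28) or T315I-Bcr-Abl (T315I-TCCS, T315I-KOPM28) human CML cells, 1×10^4 cells/well. Nine 5-fold dilutions gave final 0 to 10 μM, with DMSO as control. GI50 was derived from CCK-8 A450 as percent of vehicle.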

TCCS cells = test: human CML cell proliferation inhibition; settings: 72 hours, Cell Counting Kit-8
How it was run: as §1

KOPM28 cells = test: human CML cell proliferation inhibition; settings: 72 hours, Cell Counting Kit-8
How it was run: as §1

T315I-TCCS cells = test: human CML cell proliferation inhibition; settings: 72 hours, Cell Counting Kit-8
How it was run: as §1

Parental (Ba/F3) = test: Ba/F3 cell proliferation inhibition; settings: BaF3; 72 hours, Cell Counting Kit-8
How it was run: (§2)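 GI50 derived from CCK-8 absorbance at 450 nm (2 h development), expressed relative to DMSO vehicle. Cells (parental or T315I-Bcr-Abl Ba/F3, 1×10^4/well) received nine threefold-diluted concentrations, final 0 to 10 μM, for 72 h at 37 °C.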

T315I-Bcr-Abl (Ba/F3) = test: Ba/F3 cell proliferation inhibition; settings: BaF3; 72 hours, Cell Counting Kit-8
How it was run: as §2

Compound | GI50 (T315I-Bcr-Abl (Ba/F3)) | GI50 (T315I-KOPM28 cells) | GI50 (TCCS cells) | GI50 (KOPM28 cells) | GI50 (T315I-TCCS cells) | GI50 (Parental (Ba/F3))
Cc1cc(F)c(C(=O)Nc2cc(CN3CCOCC3)cc(C(C)(C)C#N)c2)cc1C#Cc1cnc2c(Nc3cnn(C)c3)cccn12 [Example 28, N-(3-(2-cyanopropan-2-yl)-5-(morpholinomethyl)phenyl)-2-fluoro-4-methyl-5-((8-((1-methyl-1H-pyrazol-4-yl)amino)imidazo[1,2-a]pyridin-3-yl)ethynyl)benzamide] | 50 to 500 nM | > 100 nM | < 10 nM | < 10 nM | > 100 nM | > 5000 nM
Cc1cc(F)c(C(=O)Nc2cc(CN3CC(OC(C)C)C3)cc(C(C)(C)C#N)c2)cc1C#Cc1cnc2c(Nc3cnn(C)c3)cccn12 [Example 36, N-(3-(2-cyanopropan-2-yl)-5-((3-isopropoxyazetidin-1-yl)methyl)phenyl)-2-fluoro-4-methyl-5-((8-((1-methyl-1H-pyrazol-4-yl)amino)imidazo[1,2-a]pyridin-3-yl)ethynyl)benzamide] | 50 to 500 nM | 100 nM | < 10 nM | < 10 nM | 100 nM | > 5000 nM
Cc1c(F)cc(C(=O)Nc2cc(CN3CCN(CCO)CC3)cc(C(C)(C)C#N)c2)cc1C#Cc1cnc2c(Nc3cnn(C)c3)cccn12 [Example 11, N-(3-(2-cyanopropan-2-yl)-5-((4-(2-hydroxyethyl)piperazin-1-yl)methyl)phenyl)-3-fluoro-4-methyl-5-((8-((1-methyl-1H-pyrazol-4-yl)amino)imidazo[1,2-a]pyridin-3-yl)ethynyl)benzamide] | < 50 nM | 100 nM | < 10 nM | < 10 nM | < 10 nM | > 5000 nM
Cc1cc(F)c(C(=O)Nc2ccc(CN3CCN(C)CC3)c(C(C)(C)C#N)c2)cc1C#Cc1cnc2c(Nc3cnn(C)c3)cccn12 [Example 39, N-(3-(2-cyanopropan-2-yl)-4-((4-methylpiperazin-1-yl)methyl)phenyl)-2-fluoro-4-methyl-5-((8-((1-methyl-1H-pyrazol-4-yl)amino)imidazo[1,2-a]pyridin-3-yl)ethynyl)benzamide] | < 50 nM | 100 nM | < 10 nM | < 10 nM | 100 nM | > 5000 nM
Cc1cn(-c2cc(NC(=O)c3cc(C#Cc4cnc5c(Nc6cnn(C)c6)cccn45)c(C)cc3Cl)cc(C(C)(C)C#N)c2)cn1 [Example 13, 2-chloro-N-(3-(2-cyanopropan-2-yl)-5-(4-methyl-1H-imidazol-1-yl)phenyl)-4-methyl-5-((8-((1-methyl-1H-pyrazol-4-yl)amino)imidazo[1,2-a]pyridin-3-yl)ethynyl)benzamide] | < 50 nM | 100 nM | < 10 nM | < 10 nM | < 10 nM | > 5000 nM
Cc1cc(F)c(C(=O)Nc2ccc(CN3CCN(S(C)(=O)=O)CC3)c(C(F)(F)F)c2)cc1C#Cc1cnc2c(Nc3cnn(C)c3)cccn12 [Example 60, 2-fluoro-4-methyl-5-((8-((1-methyl-1H-pyrazol-4-yl)amino)imidazo[1,2-a]pyridin-3-yl)ethynyl)-N-(4-((4-(methylsulfonyl)piperazin-1-yl)methyl)-3-(trifluoromethyl)phenyl)benzamide] | < 50 nM | > 100 nM | < 10 nM | 100 nM | 100 nM | 500 to 5000 nM
Cc1cc(F)c(C(=O)Nc2cc(CN3CCC(N(C)C)C3)cc(C(C)(C)C#N)c2)cc1C#Cc1cnc2c(Nc3cnn(C)c3)cccn12 (stereo not drawn) [Example 29, N-(3-(2-cyanopropan-2-yl)-5-((3-(dimethylamino)pyrrolidin-1-yl)methyl)phenyl)-2-fluoro-4-methyl-5-((8-((1-methyl-1H-pyrazol-4-yl)amino)imidazo[1,2-a]pyridin-3-yl)ethynyl)benzamide] | 50 to 500 nM | 100 nM | < 10 nM | < 10 nM | 100 nM | 500 to 5000 nM

The next lines start with results.

GI50 (T315I-Bcr-Abl (Ba/F3)) | Compound | GI50 (T315I-KOPM28 cells) | GI50 (TCCS cells) | GI50 (KOPM28 cells) | GI50 (T315I-TCCS cells) | GI50 (Parental (Ba/F3))
< 50 nM | Cc1cc(F)c(C(=O)Nc2cc(Oc3ccncc3)cc(C(C)(C)C#N)c2)cc1C#Cc1cnc2c(Nc3cn[nH]c3)cccn12 [Example 83, 5-((8-((1H-pyrazol-4-yl)amino)imidazo[1,2-a]pyridin-3-yl)ethynyl)-N-(3-(2-cyanopropan-2-yl)-5-(pyridin-4-yloxy)phenyl)-2-fluoro-4-methylbenzamide] | 100 nM | < 10 nM | < 10 nM | 100 nM | 500 to 5000 nM
50 to 500 nM | Cc1cc(F)c(C(=O)Nc2cc(-c3cnn(C)c3)cc(C(F)(F)F)c2)cc1C#Cc1cnc2c(Nc3cnn(C)c3)cccn12 [Example 54, 2-fluoro-4-methyl-N-(3-(1-methyl-1H-pyrazol-4-yl)-5-(trifluoromethyl)phenyl)-5-((8-((1-methyl-1H-pyrazol-4-yl)amino)imidazo[1,2-a]pyridin-3-yl)ethynyl)benzamide] | > 100 nM | < 10 nM | 100 nM | 100 nM | > 5000 nM
50 to 500 nM | Cc1cc(F)c(C(=O)Nc2cc(CN3CCN(C)C(=O)C3)cc(C(F)(F)F)c2)cc1C#Cc1cnc2c(Nc3cnn(C)c3)cccn12 [Example 71, 2-fluoro-4-methyl-5-((8-((1-methyl-1H-pyrazol-4-yl)amino)imidazo[1,2-a]pyridin-3-yl)ethynyl)-N-(3-((4-methyl-3-oxopiperazin-1-yl)methyl)-5-(trifluoromethyl)phenyl)benzamide] | > 100 nM | < 10 nM | < 10 nM | 100 nM | > 5000 nM
50 to 500 nM | Cc1cc(F)c(C(=O)Nc2cc(N3CCN(C)CC3)cc(C(F)(F)F)c2)cc1C#Cc1cnc2c(Nc3cn[nH]c3)cccn12 [Example 99, 5-((8-((1H-pyrazol-4-yl)amino)imidazo[1,2-a]pyridin-3-yl)ethynyl)-2-fluoro-4-methyl-N-(3-(4-methylpiperazin-1-yl)-5-(trifluoromethyl)phenyl)benzamide] | > 100 nM | < 10 nM | < 10 nM | 100 nM | 500 to 5000 nM
50 to 500 nM | Cc1cc(F)c(C(=O)Nc2ccc(CN3CCN(C)C(=O)C3)c(C(C)(C)C#N)c2)cc1C#Cc1cnc2c(Nc3cnn(C)c3)cccn12 [Example 44, N-(3-(2-cyanopropan-2-yl)-4-((4-methyl-3-oxopiperazin-1-yl)methyl)phenyl)-2-fluoro-4-methyl-5-((8-((1-methyl-1H-pyrazol-4-yl)amino)imidazo[1,2-a]pyridin-3-yl)ethynyl)benzamide] | > 100 nM | < 10 nM | < 10 nM | > 100 nM | 500 to 5000 nM
50 to 500 nM | Cc1cc(F)c(C(=O)Nc2cc(N3CCN(C)C(=O)C3)cc(C(F)(F)F)c2)cc1C#Cc1cnc2c(Nc3cnn(C)c3)cccn12 [Example 49, 2-fluoro-4-methyl-5-((8-((1-methyl-1H-pyrazol-4-yl)amino)imidazo[1,2-a]pyridin-3-yl)ethynyl)-N-(3-(4-methyl-3-oxopiperazin-1-yl)-5-(trifluoromethyl)phenyl)benzamide] | 100 nM | < 10 nM | < 10 nM | < 10 nM | 500 to 5000 nM
< 50 nM | Cc1cc(F)c(C(=O)Nc2ccc(CN3CCN(C)CC3)c(C(C)(C)C#N)c2)cc1C#Cc1cnc2c(Nc3cn[nH]c3)cccn12 [Example 90, 5-((8-((1H-pyrazol-4-yl)amino)imidazo[1,2-a]pyridin-3-yl)ethynyl)-N-(3-(2-cyanopropan-2-yl)-4-((4-methylpiperazin-1-yl)methyl)phenyl)-2-fluoro-4-methylbenzamide] | 100 nM | < 10 nM | < 10 nM | 100 nM | 50 to 500 nM
50 to 500 nM | Cc1cc(F)c(C(=O)Nc2cc(CN3CCN(S(C)(=O)=O)CC3)cc(C(F)(F)F)c2)cc1C#Cc1cnc2c(Nc3cnn(C)c3)cccn12 [Example 70, 2-fluoro-4-methyl-5-((8-((1-methyl-1H-pyrazol-4-yl)amino)imidazo[1,2-a]pyridin-3-yl)ethynyl)-N-(3-((4-(methylsulfonyl)piperazin-1-yl)methyl)-5-(trifluoromethyl)phenyl)benzamide] | > 100 nM | < 10 nM | < 10 nM | > 100 nM | > 5000 nM
50 to 500 nM | Cc1cc(F)c(C(=O)Nc2cc(CN3CCN(CCO)CC3)cc(C(F)(F)F)c2)cc1C#Cc1cnc2c(Nc3cn[nH]c3)cccn12 [Example 106, 5-((8-((1H-pyrazol-4-yl)amino)imidazo[1,2-a]pyridin-3-yl)ethynyl)-2-fluoro-N-(3-((4-(2-hydroxyethyl)piperazin-1-yl)methyl)-5-(trifluoromethyl)phenyl)-4-methylbenzamide] | > 100 nM | < 10 nM | < 10 nM | 100 nM | > 5000 nM
50 to 500 nM | Cc1cc(F)c(C(=O)Nc2cc(N3CCN(C)C(=O)C3)cc(C(F)(F)F)c2)cc1C#Cc1cnc2c(Nc3cn[nH]c3)cccn12 [Example 100, 5-((8-((1H-pyrazol-4-yl)amino)imidazo[1,2-a]pyridin-3-yl)ethynyl)-2-fluoro-4-methyl-N-(3-(4-methyl-3-oxopiperazin-1-yl)-5-(trifluoromethyl)phenyl)benzamide] | > 100 nM | < 10 nM | < 10 nM | 100 nM | > 5000 nM
